# Reference: patent US12275684B2, “Methods for making and using endoxifen” (Atossa Therapeutics, Inc., priority 2017, dated 2025)
# Where two headings read alike, the source gives them in different places.
# Assay: Placebo controlled, dose escalation pharmacokinetic study of oral (Z)-Endoxifen capsules (serum endoxifen; incl. accumulation ratios and dose linearity)
# Type: in vivo, human
# Parameters: Serum concentration, Maximum / Serum concentration, GeoMean / Serum concentration, Mean / Serum concentration, Median / terminal rate constant: unit not given here
# Settings: for Serum concentration, GeoMean / Serum concentration, Maximum / Serum concentration, Mean / Serum concentration, Median / Serum concentration, Minimum: 2 mg (n = 6)
# Text: An objective of the study was to assess the safety and tolerability of oral (Z)-Endoxifen when administered […] orally as a capsule to healthy female volunteers. A secondary objective was to assess the pharmacokinetics of multiple doses of oral (Z)-Endoxifen in the subjects.
# Generally, healthy female volunteers aged ≥18 years and ≤65 years were enrolled. 24 participants were enrolled in 3 cohorts and will be administered study drug orally. Three dose levels of orally administered (Z)-Endoxifen were investigated in 3 cohorts. In each cohort participants were randomized to receive an oral (Z)-Endoxifen or placebo in a blinded fashion. Enteric-resistant capsules used in the study were designed as delayed release capsules to resist rupture for at least 30 minutes, but typically, for about 2 hours, under gastric conditions and then open fully in intestinal fluid (DRCaps; Capsugel, a Lonza Company, USA). Enteric-resistant (Swedish Orange size Zero (0); Capsugel, USA) DRCaps capsules manually filled with 1, 2 or 4 mg of (Z)-endoxifen neat in compliance with GMP requirements were used. Placebo capsules contained microcrystalline cellulose an inert common capsule and tablet excipient.
# Each cohort enrolled 8 participants, with 6 participants receiving (Z)-Endoxifen 1 mg capsules orally at 1 mg (Cohort 1), 2 mg (Cohort 2) or 4 mg (Cohort 3) doses and 2 participants receiving matching placebo capsules. In Cohort 1 (Dose Level=1 mg) two participants (sentinels) were dosed 24 hours prior to the remaining participants. One sentinel was dosed with (Z)-Endoxifen and the other with placebo. The remaining six participants in Cohort 1 were dosed as no safety concerns were identified in the sentinel participants. The non-sentinel participants in Cohort 1 were admitted to the clinical research facility at least one day later than the sentinels. There were no sentinels in Cohorts 2 and 3.
# Participant engagement in this study was for a period of 56 days. These included a 28 day screening period, and a 7 day post treatment period for Pharmacokinetic (PK) sampling. There were two confinement periods, one at the beginning and one at the end of the dosing periods. Participants were confined to the clinical facility on Days-1 through to Day 2 and Days 21 and 22. If participants were to experience any clinically significant adverse events during the study, they would have been required to remain in the clinical facility for further observation at the discretion of the Principal Investigator (PI).
# Healthy female volunteers were screened within 28 days prior to commencement of dosing. Participants were admitted to the clinical facility on Day-1 for up to 3 days. The first dose of (Z)-Endoxifen or placebo capsules was administered on Day 1. Following completion of all safety assessments and sampling for PK analyses, participants were discharged from the clinical facility on Day 2. The first dose on Day 1 was followed by a 6-day treatment free period (Days 2-7). Each participant returned to the clinical facility for PK blood draws and safety assessments during the treatment free period on study Days 4 and 6. On Day 8 participants commenced daily administration of (Z)-Endoxifen capsules or placebo capsules for 14 consecutive days (Days 8-21). Participants were supplied with study drug capsules and asked to self administer daily. Participants visited the clinical facility on Days 11, 14 and 17, prior to dose administration, for PK blood draws and safety assessments. On the morning of Day 21 each participant returned to the clinical facility prior to dose administration and were confined to the facility until Day 22 to allow for the collection of PK blood draws and safety assessments. The Day 21 dose was the last administration of study drug. Participants were discharged from the clinical facility on Day 22 and returned for PK blood draws and safety assessments on study Days 24, 26, and 28. […]
smiles,measurement,setting,value
"CC/C(=C(\c1ccc(O)cc1)c1ccc(OCCNC)cc1)c1ccccc1 [(Z)-Endoxifen, (Z)-4-(1-(4-(2-(methylamino)ethoxy)phenyl)-2-phenylbut-1-enyl) phenol]",concentration at 10 h,"1 mg, Day 1 Pre-dose, read-out: Serum concentration, GeoMean",2.68 nM
same,concentration at 10 h,"1 mg, Day 1 Pre-dose, read-out: Serum concentration, Max",2.68 nM
same,concentration at 10 h,"1 mg, Day 1 Pre-dose, read-out: Serum concentration, Mean",2.68 nM
same,concentration at 10 h,"1 mg, Day 1 Pre-dose, read-out: Serum concentration, Median",2.68 nM
same,concentration at 10 h,"1 mg, Day 1 Pre-dose, read-out: Serum concentration, Min",2.68 nM
same,concentration at 10 h,"1 mg, Day 8 Pre-dose, read-out: Serum concentration, GeoMean",2.68 nM
same,concentration at 10 h,"1 mg, Day 8 Pre-dose, read-out: Serum concentration, Max",2.68 nM
same,concentration at 10 h,"1 mg, Day 8 Pre-dose, read-out: Serum concentration, Mean",2.68 nM
same,concentration at 10 h,"1 mg, Day 8 Pre-dose, read-out: Serum concentration, Median",2.68 nM
same,concentration at 10 h,"1 mg, Day 8 Pre-dose, read-out: Serum concentration, Min",2.68 nM
same,concentration at 10 h,"1 mg, Day 11 Pre-Dose, read-out: Serum concentration, GeoMean",37.7 nM
same,concentration at 10 h,"1 mg, Day 11 Pre-Dose, read-out: Serum concentration, Max",45.5 nM
same,concentration at 10 h,"1 mg, Day 11 Pre-Dose, read-out: Serum concentration, Mean",38.5 nM
same,concentration at 10 h,"1 mg, Day 11 Pre-Dose, read-out: Serum concentration, Median",42.8 nM
same,concentration at 10 h,"1 mg, Day 11 Pre-Dose, read-out: Serum concentration, Min",26.8 nM
same,concentration at 10 h,"1 mg, Day 14 Pre-dose, read-out: Serum concentration, GeoMean",37.6 nM
same,concentration at 10 h,"1 mg, Day 14 Pre-dose, read-out: Serum concentration, Max",75.0 nM
same,concentration at 10 h,"1 mg, Day 14 Pre-dose, read-out: Serum concentration, Mean",43.4 nM
same,concentration at 10 h,"1 mg, Day 14 Pre-dose, read-out: Serum concentration, Median",40.2 nM
same,concentration at 10 h,"1 mg, Day 14 Pre-dose, read-out: Serum concentration, Min",13.4 nM
same,concentration at 10 h,"1 mg, Day 17 Pre-Dose, read-out: Serum concentration, GeoMean",38.5 nM
same,concentration at 10 h,"1 mg, Day 17 Pre-Dose, read-out: Serum concentration, Max",64.2 nM
same,concentration at 10 h,"1 mg, Day 17 Pre-Dose, read-out: Serum concentration, Mean",43.4 nM
same,concentration at 10 h,"1 mg, Day 17 Pre-Dose, read-out: Serum concentration, Median",45.5 nM
same,concentration at 10 h,"1 mg, Day 17 Pre-Dose, read-out: Serum concentration, Min",13.4 nM
same,"Serum concentration, GeoMean",Day 1 Pre-dose,1.00
same,"Serum concentration, Maximum",Day 1 Pre-dose,1.00
same,"Serum concentration, Mean",Day 1 Pre-dose,0.17
same,"Serum concentration, Median",Day 1 Pre-dose,0.00
same,"Serum concentration, Minimum",Day 1 Pre-dose,0.00
same,"Serum concentration, GeoMean",Day 4 Hr 72,5.47
same,"Serum concentration, Maximum",Day 4 Hr 72,8.00
same,"Serum concentration, Mean",Day 4 Hr 72,5.67
same,"Serum concentration, Median",Day 4 Hr 72,5.50
same,"Serum concentration, GeoMean",Day 6 Hr 120,2.55
same,"Serum concentration, Maximum",Day 6 Hr 120,4.00
same,"Serum concentration, Mean",Day 6 Hr 120,2.80
same,"Serum concentration, Median",Day 6 Hr 120,3.00
same,"Serum concentration, GeoMean",Day 8 Pre-dose,1.00
same,"Serum concentration, Maximum",Day 8 Pre-dose,1.00
same,"Serum concentration, Mean",Day 8 Pre-dose,0.83
same,"Serum concentration, Median",Day 8 Pre-dose,1.00
same,"Serum concentration, GeoMean",Day 11 Pre-Dose,22.6
same,"Serum concentration, Maximum",Day 11 Pre-Dose,28.0
same,"Serum concentration, Mean",Day 11 Pre-Dose,22.8
same,"Serum concentration, Median",Day 11 Pre-Dose,22.5
same,"Serum concentration, GeoMean",Day 14 Pre-dose,28.9
same,"Serum concentration, Maximum",Day 14 Pre-dose,37.0
same,"Serum concentration, Mean",Day 14 Pre-dose,29.2
same,"Serum concentration, Median",Day 14 Pre-dose,28.5
same,"Serum concentration, GeoMean",Day 17 Pre-Dose,31.5
same,"Serum concentration, Maximum",Day 17 Pre-Dose,47.0
same,"Serum concentration, Mean",Day 17 Pre-Dose,32.2
same,"Serum concentration, Median",Day 17 Pre-Dose,29.5
same,"Serum concentration, Maximum",Day 1 hr 0.5,0.00
same,"Serum concentration, Mean",Day 1 hr 0.5,0.00
same,"Serum concentration, Median",Day 1 hr 0.5,0.00
same,"Serum concentration, GeoMean",Day 1 hr 1,2.35
same,"Serum concentration, Maximum",Day 1 hr 1,4.00
same,"Serum concentration, Mean",Day 1 hr 1,2.17
same,"Serum concentration, Median",Day 1 hr 1,2.50
same,"Serum concentration, GeoMean",Day 1 hr 2,9.55
same,"Serum concentration, Maximum",Day 1 hr 2,16.0
same,"Serum concentration, Mean",Day 1 hr 2,10.2
same,"Serum concentration, Median",Day 1 hr 2,10.0
same,"Serum concentration, GeoMean",Day 1 hr 3,14.3
same,"Serum concentration, Maximum",Day 1 hr 3,17.0
same,"Serum concentration, Mean",Day 1 hr 3,14.5
same,"Serum concentration, Median",Day 1 hr 3,14.5
same,"Serum concentration, GeoMean",Day 1 hr 4,16.6
same,"Serum concentration, Maximum",Day 1 hr 4,22.0
same,"Serum concentration, Mean",Day 1 hr 4,17.2
same,"Serum concentration, Median",Day 1 hr 4,17.5
same,"Serum concentration, GeoMean",Day 1 hr 5,16.8
same,"Serum concentration, Maximum",Day 1 hr 5,22.0
same,"Serum concentration, Mean",Day 1 hr 5,17.2
same,"Serum concentration, Median",Day 1 hr 5,17.0
same,"Serum concentration, GeoMean",Day 1 hr 8,13.8
same,"Serum concentration, Maximum",Day 1 hr 8,19.0
same,"Serum concentration, Mean",Day 1 hr 8,14.3
same,"Serum concentration, Median",Day 1 hr 8,14.5
same,"Serum concentration, GeoMean",Day 1 hr 10,14.2
same,"Serum concentration, Maximum",Day 1 hr 10,19.0
same,"Serum concentration, Mean",Day 1 hr 10,14.5
same,"Serum concentration, Median",Day 1 hr 10,14.5
same,"Serum concentration, GeoMean",Day 1 hr 12,14.1
same,"Serum concentration, Maximum",Day 1 hr 12,18.0
same,"Serum concentration, Mean",Day 1 hr 12,14.2
same,"Serum concentration, Median",Day 1 hr 12,14.0
same,"Serum concentration, Minimum",Day 1 hr 12,12.0
same,"Serum concentration, GeoMean",Day 1 hr 24,10.1
same,"Serum concentration, Maximum",Day 1 hr 24,13.0
same,"Serum concentration, Mean",Day 1 hr 24,10.3
same,"Serum concentration, Median",Day 1 hr 24,10.5
same,"AUC0-inf, Max","Day 1, 1 mg, N = 5",739 ng·h/mL
same,"AUC0-inf, Min","Day 1, 1 mg, N = 5",441 ng·h/mL
same,"AUC24hr, Max","Day 1, 1 mg, N = 5",183 ng·h/mL
same,"AUC24hr, Min","Day 1, 1 mg, N = 5",102 ng·h/mL
same,"AUCTlast, Max","Day 1, 1 mg, N = 5",582 ng·h/mL
same,"AUCTlast, Min","Day 1, 1 mg, N = 5",367 ng·h/mL
same,"CL/F, GeoMean","Day 1, 1 mg, N = 5",1.79 L/h
same,"CL/F, Max","Day 1, 1 mg, N = 5",2.27 L/h
same,"CL/F, Mean","Day 1, 1 mg, N = 5",1.82 L/h
same,"CL/F, Median","Day 1, 1 mg, N = 5",1.87 L/h
